{
  "source": "patent US7998681B2",
  "about": "“Diagnosis and therapy of antibody-mediated inflammatory auto-immune disorders” (Los Angeles Biomedical Research Institute at Harbor-UCLA …, priority 2000, dated 2011)",
  "key": {"[1]": {"test_system": "fibroblasts from patients with GD", "test": "T lymphocyte migration (chemotaxis) assay of conditioned medium from treated fibroblasts, GD donors", "type": "cell-based, human", "conditions": "IgG 100 ng/ml, IL-1β 10 ng/ml, 24 hours", "procedure": "The general migration assay is described in detail in Sciaky, D., et al., “Cultured human fibroblasts express constitutive IL-16 mRNA: Cytokine induction of active IL-16 protein synthesis through a caspase-3-dependent mechanism,” J. Immunol. 164(7):3806-14 (2000), hereby incorporated fully by reference. Briefly, fibroblasts from TAO and normal orbital tissue were seeded in 24-well arrays and grown to confluence. Monolayers were shifted containing 1% FBS to which nothing, purified normal or TAO IgG was added for various time intervals. Medium was collected and stored until use at −80° C. Chemotaxis was examined using Boyden chambers to which NWNA-T lymphocytes were added as the cellular targets. 50 μl cell suspension (10^7 cells/ml) were placed in the upper compartments of 48-well micro-chemotaxis chambers separated from 32 μl of serum samples by 8 μm micropore nitrocellulose filters (Neuroprobe). These were incubated at 37° C. in 5% CO2 environment for 3 hr. Filters were fixed, stained with hematoxylin, dehydrated, mounted on glass slides and viewed by light microscopy. Lymphocyte migration was quantified by counting the total number of cells migrating beyond a fixed depth. This depth was set to routinely identify a baseline migration under control conditions of 10-15 cells per high power field. Five such fields were counted in duplicate for each sample and the means±SD were calculated and expressed as percentage values of baseline cell migration in control buffer alone (100%). For each set of experimental conditions, at least three separate determinations were performed. Differences between experimental groups were analyzed by the Student t test using absolute values obtained for lymphocyte migration and statistical difference was accepted at the 95% level of confidence.\nTo assess specificity for IL-16, experiments were conducted by incubating samples of culture media for 15 min with neutralizing concentrations of anti-IL-16 MAB (clone 14. 1, 10 μg/ml), which blocks the chemotactic activity of 50 ng/ml of rIL-16. Anti-RANTES MAB (5 μg/ml) having an ND50 of 200 ng/ml rRANTES was used to neutralize RANTES as described in Sciaky D., Brazer, W., Center, D. M., Cruikshank, W. W. and Smith, T. J.: Cultured human fibroblasts express constitutive IL-16 mRNA: Cytokine induction of active IL-16 protein synthesis through a caspase-3-dependent mechanism. J. Immunol. 164(7):3806-14, 2000).\nReferring to FIGS. 3A-3C, serum concentrations of IL-16 are elevated in patients with active TAO. Moreover, both IL-16 and PGHS-2 protein can be detected in TAO orbital tissue. The concentration of IL-16 is determined in sera from either patients with Graves' disease or normal controls. The sera are subjected to an ELISA assay, which utilizes an anti-IL-16 specific antibody. IL-16 is detected by standard immunohistochemical techniques in thin sections harvested from affected orbital connective tissues from a patient with severe Graves' ophthalmopathy. In a separate measurement of IL-16 dependent T-cell migration, a panel of 11 different fibroblast strains from patients with Graves' disease and 5 from individuals without known thyroid disease were challenged with Graves' IgG (100 ng/ml), normal IgG (100 ng/ml) or IL-1β (10 ng/ml) for 24 hours and assessed for T cell migration activity and IL-16 production (Table II). Graves' IgG induced IL-16 dependent cell migration in 10 of the Graves' fibroblast strains which derived from orbit and skin from various anatomic regions. Included were strains from the pretibial skin as well as the abdominal wall and the neck. The latter two sites rarely manifest Graves' disease. A substantial fraction of Graves' IgG provoked T cell migration activity in most of these strains was resistant to neutralization with anti-IL-16. Similarly, chemoattractants produced by RA fibroblasts can be measured by T-cell migration. […]"}, "[2]": {"test_system": "Thy-1^+ and Thy-1^− fibroblasts", "test": "IL-8 production in Thy-1+ and Thy-1- orbital fibroblast subsets", "type": "cell-based, human", "conditions": "IL-1β treated", "text": "FIGS. 11A-11C show differential production in TAO-derived Thy-1^+ and Thy-1^− subsets of PGE2 (11A) and IL-8 in response to IL-1β stimulation (11B), and IL-16 in response to stimulation with Graves' IgG (11C).\nWith regard to cytokine expression, both subsets fail to generate detectable IL-6 under basal culture conditions but synthesize high levels of the cytokine when treated with IL-1β. The magnitude of these responses is similar in the two fibroblast populations. Similarly, both subsets express low basal levels of IL-8 (FIG. 11B). When treated with IL-1β, Thy-1^− fibroblasts synthesize and release extremely high levels of IL-8 and this induction is substantially (5.5-fold) greater than that occurring in the Thy-1^+ subset."}},
  "data": [
    {"substance": "IL-1β: pro-inflammatory cytokine used to activate fibroblasts", "values": [
      {"measurement": "T Cell Migration (% control)", "setting": "[1]; strain 1, Orbit", "value": "194 +/− 11 % control"},
      {"measurement": "T Cell Migration +anti-IL-16", "setting": "[1]; strain 1, Orbit", "value": "149 +/− 8 % control"},
      {"measurement": "T Cell Migration +anti-RANTES", "setting": "[1]; strain 1, Orbit", "value": "167 +/− 10 % control"},
      {"measurement": "T Cell Migration (% control)", "setting": "[1]; strain 2, Orbit", "value": "195 ± 13", "unit": "% control"},
      {"measurement": "T Cell Migration +anti-IL-16", "setting": "[1]; strain 2, Orbit", "value": "171 ± 7", "unit": "% control"},
      {"measurement": "T Cell Migration +anti-RANTES", "setting": "[1]; strain 2, Orbit", "value": "170 ± 8", "unit": "% control"},
      {"measurement": "T Cell Migration (% control)", "setting": "[1]; strain 3, Abdominal skin", "value": "195 +/− 13 % control"},
      {"measurement": "T Cell Migration +anti-IL-16", "setting": "[1]; strain 3, Abdominal skin", "value": "171 +/− 7 % control"},
      {"measurement": "T Cell Migration +anti-RANTES", "setting": "[1]; strain 3, Abdominal skin", "value": "171 +/− 8 % control"},
      {"measurement": "T Cell Migration (% control)", "setting": "[1]; strain 4, Orbit", "value": "236 ± 19", "unit": "% control"},
      {"measurement": "T Cell Migration +anti-IL-16", "setting": "[1]; strain 4, Orbit", "value": "175 ± 12", "unit": "% control"},
      {"measurement": "T Cell Migration +anti-RANTES", "setting": "[1]; strain 4, Orbit", "value": "188 ± 9", "unit": "% control"},
      {"measurement": "T Cell Migration (% control)", "setting": "[1]; strain 5, Abdominal skin", "value": "144 ± 8", "unit": "% control"},
      {"measurement": "T Cell Migration +anti-IL-16", "setting": "[1]; strain 5, Abdominal skin", "value": "128 ± 8", "unit": "% control"},
      {"measurement": "T Cell Migration +anti-RANTES", "setting": "[1]; strain 5, Abdominal skin", "value": "131 ± 5", "unit": "% control"},
      {"measurement": "T Cell Migration (% control)", "setting": "[1]; strain 6, Neck skin", "value": "211 ± 13", "unit": "% control"},
      {"measurement": "T Cell Migration +anti-IL-16", "setting": "[1]; strain 6, Neck skin", "value": "148 ± 10", "unit": "% control"},
      {"measurement": "T Cell Migration +anti-RANTES", "setting": "[1]; strain 6, Neck skin", "value": "178 ± 12", "unit": "% control"},
      {"measurement": "T Cell Migration (% control)", "setting": "[1]; strain 7, Pretibial skin", "value": "236 ± 19", "unit": "% control"},
      {"measurement": "T Cell Migration +anti-IL-16", "setting": "[1]; strain 7, Pretibial skin", "value": "175 ± 12", "unit": "% control"},
      {"measurement": "T Cell Migration +anti-RANTES", "setting": "[1]; strain 7, Pretibial skin", "value": "188 ± 9", "unit": "% control"},
      {"measurement": "T Cell Migration (% control)", "setting": "[1]; strain 8, Pretibial skin", "value": "204 ± 14", "unit": "% control"},
      {"measurement": "T Cell Migration +anti-IL-16", "setting": "[1]; strain 8, Pretibial skin", "value": "164 ± 10", "unit": "% control"},
      {"measurement": "T Cell Migration +anti-RANTES", "setting": "[1]; strain 8, Pretibial skin", "value": "173 ± 8", "unit": "% control"},
      {"measurement": "T Cell Migration (% control)", "setting": "[1]; strain 9, Orbit", "value": "243 +/− 13 % control"},
      {"measurement": "T Cell Migration +anti-IL-16", "setting": "[1]; strain 9, Orbit", "value": "167 +/− 11 % control"},
      {"measurement": "T Cell Migration +anti-RANTES", "setting": "[1]; strain 9, Orbit", "value": "189 +/− 10 % control"},
      {"measurement": "T Cell Migration (% control)", "setting": "[1]; strain 10, Orbit", "value": "248 +/− 19 % control"},
      {"measurement": "T Cell Migration +anti-IL-16", "setting": "[1]; strain 10, Orbit", "value": "189 +/− 14 % control"},
      {"measurement": "T Cell Migration +anti-RANTES", "setting": "[1]; strain 10, Orbit", "value": "206 +/− 12 % control"},
      {"measurement": "T Cell Migration (% control)", "setting": "[1]; strain 11, Orbit", "value": "210 +/− 13 % control"},
      {"measurement": "T Cell Migration +anti-IL-16", "setting": "[1]; strain 11, Orbit", "value": "162 +/− 11 % control"},
      {"measurement": "T Cell Migration +anti-RANTES", "setting": "[1]; strain 11, Orbit", "value": "183 +/− 6 % control"},
      {"measurement": "IL-8 induction in Thy-1^− relative to Thy-1^+ subset", "setting": "[2]", "value": 5.5, "unit": "fold"}
    ]}
  ]
}
